# Experimental data reported in patent US20130303763A1, “METHODS AND COMPOSITIONS FOR THE TREATMENT OF NECROTIZING ENTEROCOLITIS” (priority 2012, published 2013).
# Tested on: mice suffering from NEC
# Test: Treatment of necrotizing enterocolitis (NEC) induced in mice by a 5 day protocol of formula (gavage) feeding and hypoxia
# Type: in vivo, mice (C57BL/6)
# Experimental: Ten day-old breastfed SERT knockout mice, TPH1 knockout mice and wildtype littermate mice (C57BL/6) were subjected to a 5 day protocol of formula (gavage) feeding and hypoxia. This protocol reproducibly induces NEC in mice. Weights of all groups were monitored daily and cytokines were analyzed in the distal ileum at day 5. This experiment was then repeated using two groups of mice that received 100 mg/kg or 200 mg/kg of (2S)-ethyl 2-amino-3-(4-(2-amino-6-(2,2,2-trifluoro-1-(3′-fluoro-[1,1′-biphenyl]-4-yl)ethoxy)pyrimidin-4-yl)phenyl)propanoate (LP-920540), and a control group that received vehicle.
compound,measurement,setting,value
"CCOC(=O)[C@@H](N)Cc1ccc(-c2cc(OC(c3ccc(-c4cccc(F)c4)cc3)C(F)(F)F)nc(N)n2)cc1 (stereo partly drawn) [LP-920540, (2S)-ethyl 2-amino-3-(4-(2-amino-6-(2,2,2-trifluoro-1-(3′-fluoro-[1,1′-biphenyl]-4-yl)ethoxy)pyrimidin-4-yl)phenyl)propanoate]",weight loss versus vehicle-treated animals (FIG. 1),"100 or 200 mg/kg, five days of the experiment",lost significantly less weight
same,mortality (FIG. 2),"100 or 200 mg/kg, vehicle treated animals 50%",5-10%
same,levels of transcripts encoding IL-6 versus vehicle-treated mice,distal ileum at day 5,significantly less upregulated
same,levels of transcripts encoding IL-18 versus vehicle-treated mice,distal ileum at day 5,significantly less upregulated
